In the experiment the test system is P388 leukemia ip, CD2F1 mice, survival T/C. In words: NCI In Vivo Anticancer Drug Screen. Data for tumor model P388 Leukemia (intraperitoneal) in CD2F1 (CDF1) mice. The settings on record: endpoint: median survival time, higher = longer survival. The method, boiled down: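 Mice carrying the transplanted tumor received test compound or vehicle. Survival was recorded in each group, and the value is the treated-group measurement divided by that of the vehicle-treated control group.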

Setting [1] is: dose: 50.0 mg/kg/injection, schedule: Q01DX009 (ip), vehicle: saline with Tween-80.
Setting [2] is: dose: 100.0 mg/kg/injection, schedule: Q01DX009 (ip), vehicle: saline with Tween-80.
The mark [3] stands for this setting: dose: 100.0 mg/kg/injection, schedule: Q04DX003 (ip), vehicle: saline with Tween-80.
Setting [4] is: dose: 200.0 mg/kg/injection, schedule: Q04DX003 (ip), vehicle: saline with Tween-80.
Where [5] appears, read: dose: 400.0 mg/kg/injection, schedule: Q04DX003 (ip), vehicle: saline with Tween-80.
The mark [6] stands for this setting: dose: 200.0 mg/kg/injection, schedule: Q01DX009 (ip), vehicle: saline with Tween-80.
Setting [7] is: dose: 60.0 mg/kg/injection, schedule: Q01DX005 (ip), vehicle: saline with Tween-80.
The mark [8] stands for this setting: dose: 240.0 mg/kg/injection, schedule: Q01DX005 (ip), vehicle: saline with Tween-80.
Setting [9] is: dose: 12.5 mg/kg/injection, schedule: Q01DX005 (ip), vehicle: saline.
Where [10] appears, read: dose: 25.0 mg/kg/injection, schedule: Q01DX005 (ip), vehicle: saline.
The mark [11] stands for this setting: dose: 50.0 mg/kg/injection, schedule: Q01DX005 (ip), vehicle: saline.
Where [12] appears, read: dose: 120.0 mg/kg/injection, schedule: Q01DX005 (ip), vehicle: saline with Tween-80.

The structures appear in SMILES notation. Several values for one entry are separate records, joined by “and”; a condition that tells them apart may be missing. Identical values can stand only once. Inconclusive results and toxic doses are left out.

As for `CCCC12C=C(OC)C(=O)C(C1=O)C(c1ccc3c(c1)OCO3)C2C` (stereo not given), the T/C (dose: 8.75 mg/kg/injection, schedule: Q01DX005 (ip), vehicle: Klucel (hydroxypropylcellulose) (HPC)) is 118 % of control; the T/C (dose: 17.5 mg/kg/injection, schedule: Q01DX005 (ip), vehicle: Klucel (hydroxypropylcellulose) (HPC)) was 110 % of control; the T/C (dose: 35.0 mg/kg/injection, schedule: Q01DX005 (ip), vehicle: Klucel (hydroxypropylcellulose) (HPC)) was 100 % of control.

For `N#Cc1ncc(C=P(c2ccccc2)(c2ccccc2)c2ccccc2)n(O)c1=N`, the T/C is 101 % of control under setting [1] and 104 % of control under setting [2].

Turning to `OCCN1CCOCC1`, the T/C is, setting by setting: under setting [3], 95 % of control; under setting [4], 95 % of control; under setting [5], 95 % of control.

For `CC(=O)[O][Ge]([c]1ccccc1)([c]1ccccc1)[c]1ccccc1`, the T/C is 107 % of control (dose: 50.0 mg/kg/injection, schedule: Q01DX009 (ip), vehicle: Klucel (hydroxypropylcellulose) (HPC)); 107 % of control (dose: 100.0 mg/kg/injection, schedule: Q01DX009 (ip), vehicle: Klucel (hydroxypropylcellulose) (HPC)); 107 % of control (dose: 200.0 mg/kg/injection, schedule: Q01DX009 (ip), vehicle: Klucel (hydroxypropylcellulose) (HPC)); 96 % of control (dose: 400.0 mg/kg/injection, schedule: Q01DX009 (ip), vehicle: Klucel (hydroxypropylcellulose) (HPC)).

As to `CCSCCCCSCC`, the T/C under setting [1] is 100 % of control, the T/C under setting [2] was 109 % of control and the T/C under setting [6] was 113 % of control.

`S=C(Nc1ccccc1)SCc1ccc2c(c1)OCO2`: the T/C by setting is: (dose: 100.0 mg/kg/injection, schedule: Q01DX001 (ip), vehicle: saline) 98 % of control; (dose: 200.0 mg/kg/injection, schedule: Q01DX001 (ip), vehicle: saline) 101 % of control; (dose: 400.0 mg/kg/injection, schedule: Q01DX001 (ip), vehicle: saline) 101 % of control.

With `Clc1ncnc2c1ncn2C1CCCCO1` (stereo not given), the T/C is 104 % of control (dose: 50.0 mg/kg/injection, schedule: Q04DX003 (ip), vehicle: saline with Tween-80); 95 % of control (dose: 100.0 mg/kg/injection, schedule: Q01DX009 (ip), vehicle: other); 100 % of control under setting [3]; 95 % of control (dose: 200.0 mg/kg/injection, schedule: Q01DX009 (ip), vehicle: other); 100 % of control under setting [4]; 100 % of control under setting [5].

On to `O=C(c1ccc(Cl)cc1)N1CCN(C(=O)N2CCN(C(=O)N3CCN(C(=O)c4ccc(Cl)cc4)CC3)CC2)CC1`, for which the T/C was 99 % of control (dose: 3.75 mg/kg/injection, schedule: Q01DX005 (ip), vehicle: saline with Tween-80); 99 % of control (dose: 7.5 mg/kg/injection, schedule: Q01DX005 (ip), vehicle: saline with Tween-80); 100 % of control (dose: 15.0 mg/kg/injection, schedule: Q01DX005 (ip), vehicle: saline with Tween-80); 89 % of control (dose: 30.0 mg/kg/injection, schedule: Q01DX005 (ip), vehicle: saline with Tween-80); 92 % of control under setting [7]; 89 % of control under setting [8].

Consider `CC(C#N)(Cc1ccccc1)Nc1ccccc1` (stereo not given), for which the T/C runs as follows: under setting [1], 95 % of control; under setting [2], 90 % of control; under setting [6], 95 % of control.

Take `COC(=O)C1(C(C)C(=O)c2ccc(Cl)cc2)NC(=S)NC(=O)C1C#N` (stereo not given): the T/C (dose: 60.0 mg/kg/injection, schedule: Q01DX005 (ip), vehicle: saline) is 104 % of control; the T/C (dose: 120.0 mg/kg/injection, schedule: Q01DX005 (ip), vehicle: saline) was 106 % of control; the T/C (dose: 240.0 mg/kg/injection, schedule: Q01DX005 (ip), vehicle: saline) was 108 % of control.

For `CSC(/C=C1\C=CN(Cc2ccccc2)c2ccccc21)=N\S(=O)(=O)c1ccc(C)cc1`, the T/C is, setting by setting: (dose: 25.0 mg/kg/injection, schedule: Q04DX002 (ip), vehicle: saline with Tween-80) 102 % of control; (dose: 50.0 mg/kg/injection, schedule: Q04DX002 (ip), vehicle: saline with Tween-80) 97 % of control; (dose: 100.0 mg/kg/injection, schedule: Q04DX002 (ip), vehicle: saline with Tween-80) 97 % of control.

Turning to `CCCC(=O)N[C@H]1CCc2cc(OC)c(OC)c(OC)c2-c2ccc(SC)c(=O)cc21`, the T/C by setting is: (dose: 0.38 mg/kg/injection, schedule: Q01DX009 (ip), vehicle: distilled water + Tween-80) 156 % of control; (dose: 0.75 mg/kg/injection, schedule: Q01DX009 (ip), vehicle: distilled water + Tween-80) 160 % of control; (dose: 0.75 mg/kg/injection, schedule: Q01DX009 (ip), vehicle: water) 182 % of control; (dose: 1.5 mg/kg/injection, schedule: Q01DX009 (ip), vehicle: water) 231 % of control.

For the compound `COC(=O)CC(N)C(=O)O` (stereo not given), the T/C is, setting by setting: under setting [9], 97 % of control; under setting [10], 89 % of control; under setting [11], 99 % of control; (dose: 100.0 mg/kg/injection, schedule: Q01DX005 (ip), vehicle: saline) 97 % of control; (dose: 200.0 mg/kg/injection, schedule: Q01DX005 (ip), vehicle: saline) 94 % of control.

In the case of `Cc1ccc2c(c1)C1(C)OC(C=CC1=O)O2` (stereo not given), the T/C runs as follows: (dose: 25.0 mg/kg/injection, schedule: Q04DX003 (ip), vehicle: Klucel (hydroxypropylcellulose) (HPC)) 99 % of control and 119 % of control; (dose: 50.0 mg/kg/injection, schedule: Q04DX003 (ip), vehicle: Klucel (hydroxypropylcellulose) (HPC)) 98 % of control; (dose: 100.0 mg/kg/injection, schedule: Q04DX003 (ip), vehicle: Klucel (hydroxypropylcellulose) (HPC)) 123 % of control and 97 % of control; (dose: 200.0 mg/kg/injection, schedule: Q04DX003 (ip), vehicle: Klucel (hydroxypropylcellulose) (HPC)) 113 % of control.

As for `Cc1nc(C#N)c(=N)n(CCCO)c1-c1ccccc1`, the T/C reads like this: under setting [7], 109 % of control; under setting [12], 101 % of control.

On to `CCc1c[nH]c(C=O)c1CC`, for which the T/C by setting is: under setting [7], 100 % of control; under setting [12], 100 % of control; under setting [8], 99 % of control.

In the case of `COC(=O)Cn1/c(=N\N=C\c2ccccc2)sc2ccccc21`, the T/C by setting is: (dose: 100.0 mg/kg/injection, schedule: Q01DX001 (ip), vehicle: saline with Tween-80) 90 % of control; (dose: 200.0 mg/kg/injection, schedule: Q01DX001 (ip), vehicle: saline with Tween-80) 87 % of control; (dose: 400.0 mg/kg/injection, schedule: Q01DX001 (ip), vehicle: saline with Tween-80) 88 % of control.

For `C/C(C#N)=C1/Nc2ccccc2NC1=O`, the T/C was 95 % of control (dose: 25.0 mg/kg/injection, schedule: Q01DX009 (ip), vehicle: distilled water + Tween-80 + alcohol); 88 % of control and 92 % of control (dose: 50.0 mg/kg/injection, schedule: Q01DX009 (ip), vehicle: distilled water + Tween-80 + alcohol); 91 % of control (dose: 100.0 mg/kg/injection, schedule: Q01DX009 (ip), vehicle: distilled water + Tween-80 + alcohol); 100 % of control (dose: 200.0 mg/kg/injection, schedule: Q01DX009 (ip), vehicle: distilled water + Tween-80 + alcohol).

For `O=C1c2ccccc2C(=O)N1c1cccc(CBr)c1`, the T/C reads like this: (dose: 12.5 mg/kg/injection, schedule: Q01DX005 (ip), vehicle: Klucel (hydroxypropylcellulose) (HPC)) 102 % of control; (dose: 25.0 mg/kg/injection, schedule: Q01DX005 (ip), vehicle: Klucel (hydroxypropylcellulose) (HPC)) 114 % of control; (dose: 50.0 mg/kg/injection, schedule: Q01DX005 (ip), vehicle: Klucel (hydroxypropylcellulose) (HPC)) 113 % of control.

As for `CCN(CC)CC(O)c1c(OC)ccc2ccccc12` (stereo not given), the T/C runs as follows: under setting [9], 96 % of control; under setting [10], 96 % of control; under setting [11], 104 % of control and 97 % of control.

The values above are taken from PubChem BioAssay AID330 (DTP/NCI, 2004).
